Laboratory results as given in US7166581B1, “Treatment of chemotherapeutic agent and antiviral agent toxicity with acylated pyrimidine nucleosides” (Wellstat Therapeutics Corporation, priority 1987, dated 2007).

How the values were obtained:
[1] = test system: hematopoietic system (5-FU toxicity); assay: Acyl derivatives of uridine i.p. vs bone marrow toxicity of 5-FU (Example 3); type: in vivo, female Balb/C mice; conditions: for HCT % / Lym / Neut / RBC / WBC: eleven days after 5-FU
Protocol: Ninety-eight female Balb/C mice weighing approximately 20 grams each were given a one-time 150 mg/kg injection (i.p.) of 5-FU at 1 p.m. on the initial day of the study. […] All of these doses are equimolar, and were administered in a volume of 0.4 ml by i.p. injection. The groups were treated at 3:30, 6:00, and 8:30 p.m. on the initial day with their respective agents. […] On days seven and eleven following 5-FU administration, blood (0.2–0.3 ml) was collected from seven mice in each group by retro-orbital bleeding into EDTA for subsequent differential blood cell counting. Mice were sacrificed by cervical dislocation; their right femurs removed and the contents expelled for cell counting; and their spleens removed and weighed.

[2] = test system: CD8F1 spontaneous mammary adenocarcinoma; assay: TAU/uridine rescue with 5-FU alone in tumor-bearing mice (Example 5); type: in vivo
Protocol: Sixty CD8F1 (BALB/C×[…]) female mice with first generation transplants of CD8F1 spontaneous mammary adenocarcinoma were treated with a weekly chemotherapy regimen which included a single dose of 5-FU (150 mg/kg) followed by various rescue strategies. The average tumor size was 157 mg at the start of the chemotherapy. The weekly chemotherapy course was completed three times.
In order to evaluate the various rescue therapies, the animals were divided into six groups of ten animals each as follows: […]

[3] = test system: hematopoietic system (5-FU toxicity); assay: Oral TAU vs uridine rescue from 5-FU hematologic toxicity (Example 1); type: in vivo, female Balb/C mice
Protocol: Forty-five female Balb/C mice (20 grams each) were given 5-fluorouracil (150 mg/kg, i.p.) at 12:00 noon on the initial day of the experiment. These animals were then divided into 5 groups: control (water, p.o.), oral uridine at 400 mg/kg/dose, oral uridine at 800 mg/kg/dose, parenteral (i.p.) uridine at 400 mg/kg/dose, and oral TAU at 500 mg/kg/dose.
Two hours after administration of 5-FU, the rescue treatments with uridine or triacetyluridine were begun. Groups received their designated treatment at 2:00 p.m., 4:00 p.m., and 6:00 p.m. on the day of 5-FU administration, and at 9 a.m., 11:00 a.m., 1:00 p.m., 3:00 p.m. and 5:00 p.m. on the following day. Each dose of uridine or TAU was administered in 0.2 ml of water by gavage or in 0.2 ml of saline by i.p. injection, as appropriate.
Mice were sacrificed by cervical dislocation; femurs were removed, and their cell contents were expelled for counting; spleens were also removed and weighed. […]

[4] = test system: CD8F1 spontaneous breast tumors; assay: TAU/uridine rescue with PALA-MTX-5-FU-LV combination chemotherapy in tumor-bearing mice (Example 6); type: in vivo, male CD8F1 mice; conditions: PALA-MTX-5-FU-LV weekly x3
Protocol: Forty male CD8F1 mice with transplanted CD8F1 spontaneous breast tumors (initial tumor weight of 155 mg) were treated weekly with the following regimen:
In order to evaluate and compare the efficacy of TAU and uridine, the mice were divided into four groups of ten animals each.
Saline, uridine, or TAU was administered every eight hours for a total of 5 treatments starting two hours after each weekly dose of 5-FU. This weekly regimen was repeated for three successive weeks. One week after the third course of chemotherapy regimen, mortality in each group was assessed and, where a sufficient number of animals survived, body weight and tumor weight were also measured.

in vivo = assay: in vivo; parameters: species or system mice; conditions: mouse, ip, 300 mg/kg
Protocol: Plasma uridine levels were determined in mice at various times (15 minutes, 30 minutes, 1 hour, and 2 hours) after administration of the acyl derivatives of uridine utilized in Example 3 for attenuation of toxicity caused by 5-FU. Groups of mice (n=3 per compound per time point) received intraperitoneal injections of uridine (300 mg/kg), triacetyluridine (TAU; 455 mg/kg/treatment), benzoyluridine (BU; 428 mg/kg/treatment), ethoxycarbonyluridine (ECU; 389 mg/kg/treatment), octanoyluridine (OU; 455 mg/kg/treatment), and valeryluridine (VU; 403 mg/kg/treatment). The doses of the acyl derivatives of uridine are the molar equivalent of 300 mg/kg uridine. At the appropriate time points, blood samples (200 μl) were taken from mice via the retro-orbital sinus and immediately centrifuged. 75 μl of the resulting plasma was deproteinized with 2 volumes of methanol followed by centrifugation. The supernatant was lyophilized and reconstituted with 50 mM potassium phosphate buffer, pH 6.0, and analyzed for uridine content by HPLC on a reverse phase (C18) column. Uridine was separated from other plasma components in 50 mM potassium phosphate buffer, pH 6.0, with a methanol gradient (2% to 35% over 15 minutes). Uridine was detected and quantified by UV absorbance at 260 nm.

[5] = day seven after 5-FU, TAU 455 mg/kg/treatment i.p.
[6] = 5-FU 150 mg/kg i.p. weekly x3 + oral uridine 5,000 or equimolar TAU 7,582 mg/kg
[7] = 7 days after 5-FU 150 mg/kg i.p., oral, Urd 400 or equimolar TAU 500 mg/kg/dose
[8] = 7 days after 5-FU, oral, Urd 400 or equimolar TAU 500 mg/kg/dose
[9] = 11 days after 5-FU, oral, Urd 400 or equimolar TAU 500 mg/kg/dose
[10] = oral uridine 4,000 or equimolar TAU 6,066 mg/kg every 8 h x5
[11] = 5-FU 150 mg/kg i.p. weekly x3 + uridine 3,500 mg/kg i.p.
[12] = 7 days after 5-FU, Urd 400 mg/kg/dose i.p.
[13] = 7 days after 5-FU, Urd 800 mg/kg/dose oral
[14] = 11 days after 5-FU, Urd 400 mg/kg/dose i.p.
[15] = 11 days after 5-FU, Urd 800 mg/kg/dose oral

Compound: CC(=O)OC[C@H]1O[C@@H](n2ccc(=O)[nH]c2=O)[C@H](OC(C)=O)[C@@H]1OC(C)=O [TAU, triacetyluridine]
- bone marrow cellularity [1, 5]: 4.50±77 ×10^3 per microliter
- increase of bone marrow cellularity over control values [1, 5]: 40%
- HCT % ([1]; equimolar i.p. doses): 35.01 ± 1.2%
- Lym ([1]; equimolar i.p. doses): 5.6 ± .4 K/μl
- Neut ([1]; equimolar i.p. doses): .55 ± K/μl
- RBC ([1]; equimolar i.p. doses): 7.35 ± .2 M/μl
- WBC ([1]; equimolar i.p. doses): 6.23 ± .55 K/μl
- Average Final Tumor Weight [2, 6]: 1,013 mg
- Mortality [2, 6]: 1/10
- WBC [3, 7]: 5.9 ± .4 K/μl
- Lymphocytes [3, 8]: 4.72 ± .36 K/μl
- Marrow cell counts [3, 8]: 3.0 ± .5 × 10^6 × 10^6/femur
- Neutrophils [3, 8]: 1.20 K/μl
- Platelets [3, 8]: 723 K/μl
- RBC [3, 8]: 8.27 ± .16 M/μl
- Spleen weight [3, 8]: 78 ± 3.5 mg
- Lymphocytes [3, 9]: 3.29 ± .36 K/μl
- Neutrophils [3, 9]: 1.89 K/μl
- Platelets [3, 9]: 1446 K/μl
- RBC [3, 9]: 8.05 M/μl
- Spleen weight [3, 9]: 143 ± 11 mg
- WBC [3, 9]: 5.4 ± .5 K/μl
- Average Final Tumor Weight ([4]; oral TAU 6,066 mg/kg): 162 mg
- Mortality [4, 10]: 1/10

Compound: O=c1ccn([C@@H]2O[C@H](CO)[C@@H](O)[C@H]2O)c(=O)[nH]1 [Urd, uridine]
- Spleen weights ([1]; day eleven after 5-FU, equimolar i.p. doses, in mg): 121.6±9.7
- Spleen weight ([1]; day seven after 5-FU 150 mg/kg i.p., i.p. doses equimolar to uridine 300 mg/kg/treatment): 80.4 ± 7.8 mg
- Platelet counts ([1]; day seven after 5-FU, equimolar i.p. doses): 785.3±57.5 ×10^3 per microliter
- HCT % ([1]; equimolar i.p. doses): 34.67 ± 0.9%
- Lym ([1]; equimolar i.p. doses): 4.6 ± .4 K/μl
- Neut ([1]; equimolar i.p. doses): .60 ± K/μl
- RBC ([1]; equimolar i.p. doses): 7.32 ± .2 M/μl
- WBC ([1]; equimolar i.p. doses): 5.20 ± .47 K/μl
- Average Final Tumor Weight [2, 6]: 896 mg
- Mortality [2, 6]: 0/10
- Average Final Tumor Weight [2, 11]: 1,604 mg
- Mortality [2, 11]: 1/10
- WBC [3, 7]: 4.4 ± .5 K/μl
- Lymphocytes [3, 12]: 3.80 ± .30 K/μl
- Marrow cell counts [3, 12]: 5.0 ± .7 × 10^6 × 10^6/femur
- Neutrophils [3, 12]: 0.83 ± .24 K/μl
- Platelets [3, 12]: 773 K/μl
- RBC [3, 12]: 8.06 ± .05 M/μl
- Spleen weight [3, 12]: 78 ± 5.5 mg
- WBC [3, 12]: 4.6 ± .4 K/μl
- Lymphocytes [3, 13]: 3.76 ± .27 K/μl
- Marrow cell counts [3, 13]: 2.9 ± .9 × 10^6 × 10^6/femur
- Neutrophils [3, 13]: 0.88 ± .22 K/μl
- Platelets [3, 13]: 646 K/μl
- RBC [3, 13]: 8.24 ± .26 M/μl
- Spleen weight [3, 13]: 74 ± 6.4 mg
- WBC [3, 13]: 4.6 ± .4 K/μl
- Lymphocytes [3, 8]: 3.01 ± .77 K/μl
- Marrow cell counts [3, 8]: 1.6 ± .2 × 10^6 × 10^6/femur
- Neutrophils [3, 8]: 0.48 ± .23 K/μl
- Platelets [3, 8]: 434 K/μl
- RBC [3, 8]: 7.66 ± .12 M/μl
- Spleen weight [3, 8]: 74 ± 2.4 mg
- Lymphocytes [3, 14]: 3.84 ± .38 K/μl
- Neutrophils [3, 14]: 1.20 ± .21 K/μl
- Platelets [3, 14]: 1706 K/μl
- RBC [3, 14]: 7.78 ± .22 M/μl
- Spleen weight [3, 14]: 104 ± 6 mg
- WBC [3, 14]: 5.1 ± .5 K/μl
- Lymphocytes [3, 15]: 4.07 ± .38 K/μl
- Neutrophils [3, 15]: 0.82 ± .19 K/μl
- Platelets [3, 15]: 2127 K/μl
- RBC [3, 15]: 7.33 ± .16 M/μl
- Spleen weight [3, 15]: 99 ± 6 mg
- WBC [3, 15]: 4.9 ± .4 K/μl
- Lymphocytes [3, 9]: 3.65 ± .27 K/μl
- Neutrophils [3, 9]: 0.84 ± .19 K/μl
- Platelets [3, 9]: 1940 K/μl
- RBC [3, 9]: 7.44 ± .14 M/μl
- Spleen weight [3, 9]: 103 ± 15 mg
- WBC [3, 9]: 4.6 ± .5 K/μl
- Mortality [4, 10]: 5/10
- Average Final Tumor Weight ([4]; uridine 3,500 mg/kg i.p.): 110 mg
- Mortality ([4]; uridine 3,500 mg/kg i.p. every 8 h x5): 0/10
- concentration at 15 min (in vivo): 911 µM
- concentration at 30 min (in vivo): 415 µM
- concentration at 1 h (in vivo): 185 µM
- concentration at 2 h (in vivo): 5.3 µM
